From patent US20260098030A1, “NEGATIVE ALLOSTERIC MODULATORS OF METABOTROPIC GLUTAMATE RECEPTOR 2” (Vanderbilt University, priority 2022, published 2026)
pIC50: −log10 of the molar value.

target: T1, human mGlu2 (Homo sapiens, UniProt Q14416); assay: mGlu GIRK cell-based thallium flux assay, human mGlu2; conditions: HEK-293 cells co-expressing human mGlu2 and GIRK, EC80 glutamate
T1 construct: expressed in transfected cells; host or cells: HEK-293 cells stably co-expressing GIRK channels
Method: Human embryonic kidney (HEK-293) cell lines stably co-expressing human or rat mGlu2 and G protein-coupled inwardly rectifying potassium (GIRK) channels, or human mGlu3 and GIRK, were used for in vitro evaluation of compound activity in thallium flux assay using a fluorescent thallium indicator dye.
The day before the assay, GIRK cells co-expressing human mGlu3, human or rat mGlu2, as described above, were plated in black-walled, clear-bottomed, amine-coated 384-well plates at a density of 15,000 cells/20 μL/well in the assay medium (glutamine-depleted basal DMEM supplemented with 10% dialyzed FBS, 20 mM HEPES, 1 mM sodium pyruvate). Cells were incubated at 37° C. in the presence of 5% CO2. The next day, assay buffer (Hanks balanced salt solution, 20 mM HEPES, 4.16 mM sodium bicarbonate, pH 7.2) was prepared to dilute compounds and Thallos AM fluorescent dye solution. The 2× Thallos dye solution (final concentration 0.34 μM to the cells) was prepared by mixing the dye stock (2.97 mM in DMSO) to 1:1 with 10% pluronic acid before adding to the assay buffer. Cells were washed with assay buffer using a microplate washer to remove the medium, resulting in 20 μL of buffer remaining in each well. Immediately, 20 μL of 2× Thallos dye solution was added to cells, and incubated for one hour at 25° C. During the cell dye loading incubation period, a 10-point concentration serial dilution of compound was created from a 10 mM DMSO compound stock by performing a 1:3 serial dilution in DMSO using the Bravo liquid handler. The 2× compound plate was generated by transferring 0.24 μL of the diluted compound in each well to a daughter plate using an Echo acoustic liquid handler. This is further diluted in 40 μL assay buffer, resulting in a range from 30 μM to 1.5 nM final concentration in the assay. The agonist plate (5×) was prepared to include EC80 glutamate concentration (a concentration to elicit 80% of a maximally effective glutamate concentration) in thallium buffer (125 mM […], 1 mM magnesium sulfate, 1.8 mM calcium sulfate, 5 mM glucose, 10 mM HEPES, pH 7.2, 12.5 mM thallium sulfate).
After dye-loading, cell plates were washed with assay buffer to remove excess extracellular dye using a microplate washer, resulting in 20 μL of buffer remaining in each well. After a ten-minute equilibration period, cell, compound and agonist plates were loaded into a Hamamatsu μCell kinetic imaging plate reader equipped with liquid handler to monitor fluorescence changes at 480 nm excitation and 540 nm emission settings. Briefly, after collection of baseline fluorescence, 20 μL of compound was added and incubated for two minutes and twenty seconds. This is immediately followed by adding 10 μL of glutamate-thallium buffer to the wells containing compound. The fluorescent signal was monitored an additional 2.5 minutes after the glutamate addition. Multiple reference wells containing no compound received either no glutamate (for a baseline reference), EC80 glutamate, or ECmax glutamate (for normalization to maximum response). Fluorescence was measured throughout the experiment at a frequency of 1 measurement per every 2 seconds before the glutamate addition and a frequency of 1 measurement per every 1 second after the glutamate addition. Each compound concentration series occurred one time in each plate, and replicates from two or three plates were used in each experimental run. Thallium solutions were handled and disposed of according to guidelines from the Vanderbilt University Chemical Safety department.
Data were normalized using a static ratio function (F/F0) by dividing every fluorescent measurement by the initial fluorescent value for the corresponding well. The increase in signal resulting from the glutamate/thallium addition of the second add was measured by determining the slope from 3 seconds to 13 seconds after the addition. […]

T1 sequence (Q14416 19-872): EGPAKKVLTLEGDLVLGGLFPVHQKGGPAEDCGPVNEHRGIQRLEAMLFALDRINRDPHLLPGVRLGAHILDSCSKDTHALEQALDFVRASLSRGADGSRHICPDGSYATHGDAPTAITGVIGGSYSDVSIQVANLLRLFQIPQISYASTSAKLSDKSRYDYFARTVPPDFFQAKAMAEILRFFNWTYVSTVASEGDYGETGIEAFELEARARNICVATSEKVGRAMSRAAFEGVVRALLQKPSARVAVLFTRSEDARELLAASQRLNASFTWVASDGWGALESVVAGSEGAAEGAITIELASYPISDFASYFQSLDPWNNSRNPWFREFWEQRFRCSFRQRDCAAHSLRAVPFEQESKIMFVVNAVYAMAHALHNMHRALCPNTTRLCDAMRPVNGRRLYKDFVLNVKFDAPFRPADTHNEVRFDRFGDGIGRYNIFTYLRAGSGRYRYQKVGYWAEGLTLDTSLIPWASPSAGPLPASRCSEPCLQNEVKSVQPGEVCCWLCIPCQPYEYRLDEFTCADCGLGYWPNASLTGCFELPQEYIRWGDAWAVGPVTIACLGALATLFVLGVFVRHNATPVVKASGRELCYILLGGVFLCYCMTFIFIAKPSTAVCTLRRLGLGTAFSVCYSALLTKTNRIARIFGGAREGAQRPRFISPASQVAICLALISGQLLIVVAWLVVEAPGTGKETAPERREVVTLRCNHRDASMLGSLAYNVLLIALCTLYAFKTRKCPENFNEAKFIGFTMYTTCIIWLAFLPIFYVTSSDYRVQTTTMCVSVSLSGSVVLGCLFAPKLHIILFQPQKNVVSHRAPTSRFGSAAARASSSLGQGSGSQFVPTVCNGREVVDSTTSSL

| SMILES | pIC50 |
| --- | --- |
| O=C1NCc2cc(-c3cnn(C4COC4)c3)c(-c3ccc(F)cc3)cc21 [Compound 3, 6-(4-fluorophenyl)-5-(1-(oxctan-3-yl)-1H-pyrazol-4-yl)isoindolin-1-one] | < 5.00 |
| Cn1ncc(-c2cc3c(cc2-c2ccc(F)cc2F)C(=O)NC3)c1C#N [Compound 115, 4-(6-(2,4-difluorophenyl)-1-oxoisoindolin-5-yl)-1-methyl-1H-pyrazole-5-carbonitrile] | 6.63 |
| CS(=O)(=O)Nc1cccc(-c2cc3c(cc2-c2ccc(F)cc2F)C(=O)NC3)c1 [Compound 116, N-(3-(6-(2,4-difluorophenyl)-1-oxoisoindolin-5-yl)phenyl)methanesulfonamide] | 6.03 |
| CNC(=O)c1cc(Cl)cc(-c2cc3c(cc2-c2ccc(F)cc2F)C(=O)NC3)c1 [Compound 117, 3-chloro-5-(6-(2,4-difluorophenyl)-1-oxoisoindolin-5-yl)-N-methylbenzamide] | 6.13 |
| CC(C)NC(=O)c1cccc(-c2cc3c(cc2-c2ccc(F)cc2F)C(=O)NC3)c1 [Compound 118, 3-(6-(2,4-difluorophenyl)-1-oxoisoindolin-5-yl)-N-isopropylbenzamide] | 5.70 |
| CNS(=O)(=O)c1cccc(-c2cc3c(cc2-c2ccc(F)cc2F)C(=O)NC3)c1 [Compound 119, 3-(6-(2,4-difluorophenyl)-1-oxoisoindolin-5-yl)-N-methylbenzenesulfonamide] | 5.57 |
| CC(=O)Nc1ccccc1-c1cc2c(cc1-c1ccc(F)cc1F)C(=O)NC2 [Compound 120, N-(2-(6-(2,4-difluorophenyl)-1-oxoisoindolin-5-yl)phenyl)acetamide] | 5.98 |
| CNC(=O)c1ccc(F)c(-c2cc3c(cc2-c2ccc(F)cc2F)C(=O)NC3)c1 [Compound 121, 3-(6-(2,4-difluorophenyl)-1-oxoisoindolin-5-yl)-4-fluoro-N-methylbenzamide] | 5.84 |
| CS(=O)(=O)c1cccc(-c2cc3c(cc2-c2ccc(F)cc2F)C(=O)NC3)c1 [Compound 122, 6-(2,4-difluorophenyl)-5-(3-(methylsulfonyl)phenyl)isoindolin-1-one] | 5.89 |
| N#Cc1cc(F)ccc1-c1cc2c(cc1-c1ccc(F)cc1F)C(=O)NC2 [Compound 123, 2-(6-(2,4-difluorophenyl)-1-oxoisoindolin-5-yl)-5-fluorobenzonitrile] | 6.35 |
| N#Cc1ccccc1-c1cc2c(cc1-c1ccc(F)cc1F)C(=O)NC2 [Compound 124, 2-(6-(2,4-difluorophenyl)-1-oxoisoindolin-5-yl)benzonitrile] | 6.30 |
| Cn1cc(-c2cc3c(cc2-c2ccc(F)cc2F)C(=O)NC3)cc1C#N [Compound 125, 4-(6-(2,4-difluorophenyl)-1-oxoisoindolin-5-yl)-1-methyl-1H-pyrrole-2-carbonitrile] | 5.94 |
| Cc1noc(C)c1-c1cc2c(cc1-c1ccc(F)cc1F)C(=O)NC2 [Compound 126, 6-(2,4-difluorophenyl)-5-(3,5-dimethylisoxazol-4-yl)isoindolin-1-one] | < 5.00 |
| CS(=O)(=O)n1cc(-c2cc3c(cc2-c2ccc(F)cc2F)C(=O)NC3)cn1 [Compound 127, 6-(2,4-difluorophenyl)-5-(1-(methylsulfonyl)-1H-pyrazol-4-yl)isoindolin-1-one] | 5.10 |
| CS(=O)(=O)c1ccccc1-c1cc2c(cc1-c1ccc(F)cc1F)C(=O)NC2 [Compound 128, 6-(2,4-difluorophenyl)-5-(2-(methylsulfonyl)phenyl)isoindolin-1-one] | 5.47 |
| CCn1cc(-c2cc3c(cc2-c2ccc(F)cc2F)C(=O)NC3)c(C(F)(F)F)n1 [Compound 129, 6-(2,4-difluorophcnyl)-5-(1-cthyl-3-(trifluoromethyl)-1H-pyrazol-4-yl)isoindolin-1-one] | 6.12 |
| CC(C)Cn1cc(-c2cc3c(cc2-c2ccc(F)cc2F)C(=O)NC3)cn1 [Compound 130, 6-(2,4-difluorophenyl)-5-(1-isobutyl-1H-pyrazol-4-yl)isoindolin-1-one] | 6.00 |

| SMILES | pIC50 |
| --- | --- |
| O=C1NCc2cc(-c3cnn(CC(F)(F)F)c3)c(-c3ccc(F)cc3F)cc21 [Compound 131, 6-(2,4-difluorophenyl)-5-(1-(2,2,2-trifluoroethyl)-1H-pyrazol-4-yl)isoindolin-1-one] | 6.44 |
| O=C1NCc2cc(-c3cnn(CC4CC4)c3)c(-c3ccc(F)cc3F)cc21 [Compound 132, 5-(1-(cyclopropylmethyl)-1H-pyrazol-4-yl)-6-(2,4-difluorophenyl)isoindolin-1-one] | 6.28 |
| CC(C)n1cc(-c2cc3c(cc2-c2ccc(F)cc2F)C(=O)NC3)cn1 [Compound 133, 6-(2,4-difluorophenyl)-5-(1-isopropyl-1H-pyrazol-4-yl)isoindolin-1-one] | 5.74 |
| CCn1cc(-c2cc3c(cc2-c2ccc(F)cc2F)C(=O)NC3)cn1 [Compound 134, 6-(2,4-difluorophenyl)-5-(1-ethyl-1H-pyrazol-4-yl)isoindolin-1-one] | 5.63 |
| O=C1NCc2cc(-c3ccc(=O)n(C(F)F)c3)c(-c3ccc(F)cc3F)cc21 [Compound 135, 5-(1-(difluoromethyl)-6-oxo-1,6-dihydropyridin-3-yl)-6-(2,4-difluorophenyl)isoindolin-1-one] | 5.69 |
| O=C1NCc2cc(-c3cccc4c3CNC4=O)c(-c3ccc(F)cc3F)cc21 [Compound 136, 6′-(2,4-difluorophenyl)-[4,5′-biisoindoline]-1,1′-dione] | 5.50 |
| Nc1ccccc1-c1cc2c(cc1-c1ccc(F)cc1F)C(=O)NC2 [Compound 137, 5-(2-aminophenyl)-6-(2,4-difluorophenyl)isoindolin-1-one] | 6.09 |
| N#Cc1cccc(-c2cc3c(cc2-c2ccc(C#N)cc2F)C(=O)NC3)c1 [Compound 138, 4-(6-(3-cyanophenyl)-3-oxoisoindolin-5-yl)-3-fluorobenzonitrile] | 6.27 |
| N#Cc1cccc(-c2cc3c(cc2-c2ccc(F)c(F)c2F)C(=O)NC3)c1 [Compound 139, 3-(1-oxo-6-(2,3,4-trifluorophenyl)isoindolin-5-yl)benzonitrile] | 6.14 |
| N#Cc1cccc(-c2cc3c(cc2-c2cc(F)c(F)cc2F)C(=O)NC3)c1 [Compound 140, 3-(1-oxo-6-(2,4,5-trifluorophenyl)isoindolin-5-yl)benzonitrile] | 5.82 |
| N#Cc1cccc(-c2cc3c(cc2-c2ccc(F)cc2C#N)C(=O)NC3)c1 [Compound 141, 2-(6-(3-cyanophenyl)-3-oxoisoindolin-5-yl)-5-fluorobenzonitrile] | 6.66 |
| Cc1ccc(-c2cc3c(cc2-c2cccc(C#N)c2)CNC3=O)c(F)c1 [Compound 142, 3-(6-(2-fluoro-4-methylphenyl)-1-oxoisoindolin-5-yl)benzonitrile] | 5.88 |
| Cc1cc(F)ccc1-c1cc2c(cc1-c1cccc(C#N)c1)CNC2=O [Compound 143, 3-(6-(4-fluoro-2-methylphenyl)-1-oxoisoindolin-5-yl)benzonitrile] | 5.78 |
| N#Cc1cccc(-c2cc3c(cc2-c2ccc(C(F)(F)F)cc2F)C(=O)NC3)c1 [Compound 144, 3-(6-(2-fluoro-4-(trifluoromethyl)phenyl)-1-oxoisoindolin-5-yl)benzonitrile] | 5.51 |
| O=C1NCc2cc(-c3ccnn3C3CCCCO3)c(-c3ccc(F)cc3F)cc21 (stereo not drawn) [Compound 147, 6-(2,4-difluorophenyl)-5-(1-(tetrahydro-2H-pyran-2-yl)-1H-pyrazol-5-yl)isoindolin-1-one] | 5.23 |
| O=C1NCc2cc(-c3cnc(Cl)n3C3CCCCO3)c(-c3ccc(F)cc3F)cc21 (stereo not drawn) [Compound 148, 5-(2-chloro-1-(tetrahydro-2H-pyran-2-yl)-1H-imidazol-5-yl)-6-(2,4-difluorophenyl)isoindolin-1-one] | 6.34 |
